{
  "source": "patent US5342925A",
  "about": "“Radioactive compositions for soft tissue tumors” (priority 1991, dated 1994)",
  "key": {"[1]": {"assay": "Whole body retention (whole body counts after I.V. injection) in miniature pigs with melanotic lesions", "assay_type": "in vivo", "details": "for % Whole Body Retention (24 hrs.): I.V., 1-2 mCi 153Sm, % = percentage of injected dose", "protocol": "(§1) Images (right lateral, left lateral and dorsal) were made at 4, 24, 48 and 72 hours."}, "[2]": {"assay": "Bone and liver uptake scored from scintigraphic images of miniature pigs with melanotic lesions", "assay_type": "in vivo", "protocol": "as §1\n(§2) 1--Slight uptake (negligible)\n(§3) 2--Moderate uptake (intermediate )\n(§4) 3--Definite uptake (high)\n(§5) The average of the 3 investigators independent scores were used in the following table."}, "[3]": {"test_system": "naturally occurring melanotic lesions", "assay": "Tumor uptake scored from images of miniature pigs with naturally occurring melanotic lesions", "assay_type": "in vivo", "details": "24 hour images, average score of 3 investigators, scale 0-3", "protocol": "as §1, §2, §3, §4, §5"}, "[4]": {"details": "in vivo; cited from earlier work"}, "[5]": {"test_system": "Ehrlich tumors", "details": "experimental animals bearing Ehrlich tumors; cited from earlier work"}, "[6]": {"details": "24 hour images, average score of 3 investigators, scale 0-3"}, "[7]": {"details": "Comparative Example A, in words"}},
  "note": "Several values for one entry are separate records, joined by “and”; a condition that tells them apart may be missing. Equal values may be shown once.",
  "data": [
    {"molecule": "CC(=O)Nc1cc(CN(CC(=O)O)CC(=O)O)c(O)c(CN(CC(=O)O)CC(=O)O)c1.[153Sm+3]", "note": "[Example 1]", "values": [
      {"measurement": "% Whole Body Retention (24 hrs.)", "setting": "[1]", "value": "29.5% and 40.1%"},
      {"measurement": "Bone Uptake", "setting": "[2]; [6]", "value": 3.00},
      {"measurement": "Liver Uptake", "setting": "[2]; [6]", "value": 0.67},
      {"measurement": "Tumor Uptake (Dorsal neck)", "setting": "[3]", "value": 3.00},
      {"measurement": "Tumor Uptake (Left stifle)", "setting": "[3]", "value": 2.00},
      {"measurement": "Tumor Uptake (Right head)", "setting": "[3]", "value": 0.67},
      {"measurement": "Tumor Uptake (Right thorax)", "setting": "[3]", "value": 2.00}
    ]},
    {"molecule": "CC(=O)Nc1ccc(O)c(CN(CC(=O)O)CC(=O)O)c1.[153Sm+3]", "note": "[Example 2]", "values": [
      {"measurement": "% Whole Body Retention (24 hrs.)", "setting": "[1]", "value": "60.7% and 46.6%"},
      {"measurement": "Bone Uptake", "setting": "[2]; [6]", "value": "1.33 and 2.33"},
      {"measurement": "Liver Uptake", "setting": "[2]; [6]", "value": "2.00 and 1.00"},
      {"measurement": "Tumor Uptake (Dorsal neck)", "setting": "[3]", "value": 3.00},
      {"measurement": "Tumor Uptake (Left stifle)", "setting": "[3]", "value": 2.00},
      {"measurement": "Tumor Uptake (Right head)", "setting": "[3]", "value": 0.00},
      {"measurement": "Tumor Uptake (Right thorax)", "setting": "[3]", "value": 0.00},
      {"measurement": "Tumor Uptake (draining node)", "setting": "[3]; draining node", "value": 0.00}
    ]},
    {"molecule": "CC(=O)Nc1cc(CN(CC(=O)O)CC(=O)O)c(O)c(CN(CC(=O)O)CC(=O)O)c1.[153Sm+3]", "note": "[Example 3]", "values": [
      {"measurement": "% Whole Body Retention (24 hrs.)", "setting": "[1]", "value": "42.9% and 37.1%"},
      {"measurement": "Tumor Uptake (Left sacrum)", "setting": "[3]; Left sacrum", "value": 3.00},
      {"measurement": "Tumor Uptake (Right nasal)", "setting": "[3]; Right nasal", "value": 2.00},
      {"measurement": "Tumor Uptake (Right stifle)", "setting": "[3]; Right stifle", "value": 0.00}
    ]},
    {"molecule": "CC(=O)Nc1cc(CN(CC(=O)O)CC(=O)O)c(O)c(CN(CC(=O)O)CC(=O)O)c1.[153Sm+3]", "note": "[Example 4]", "values": [
      {"measurement": "% Whole Body Retention (24 hrs.)", "setting": "[1]", "value": "55.2% and 48.2%"},
      {"measurement": "Bone Uptake", "setting": "[2]; [6]", "value": 1.67},
      {"measurement": "Liver Uptake", "setting": "[2]; [6]", "value": "3.00 and 2.00"},
      {"measurement": "Tumor Uptake (Left carpus)", "setting": "[3]; Left carpus", "value": 0.00},
      {"measurement": "Tumor Uptake (Left stifle)", "setting": "[3]", "value": 0.00},
      {"measurement": "Tumor Uptake (Right ear)", "setting": "[3]; Right ear", "value": 2.00}
    ]},
    {"molecule": "O=C([O-])CC(O)(CC(=O)[O-])C(=O)[O-].[67Ga+3]", "note": "[^67 Ga-citrate, reference compound]", "values": [
      {"measurement": "clearance from extracellular fluid", "setting": "[1]; [7]", "value": "never cleared the extracellular fluid"},
      {"measurement": "Liver Uptake", "setting": "[2]; [7]", "value": "unacceptably large liver uptake"}
    ]},
    {"molecule": "O=C([O-])CN(CCN(CC(=O)[O-])CC(=O)[O-])CCN(CC(=O)[O-])CC(=O)[O-].[99Tc+4]", "note": "[^99m Tc-DTPA]", "values": [
      {"measurement": "elimination route", "setting": "[4]", "value": "eliminated from the body by the kidneys into the urine"},
      {"measurement": "tissue localization", "setting": "[4]", "value": "does not result in the radionuclide localizing in any tissue"}
    ]},
    {"molecule": "O=C(O)CN(CCN(CC(=O)O)CC(=O)O)CC(=O)O", "note": "[ethylenediaminetetraacetic acid (EDTA), ethylenediaminetetraacetic acid]", "values": [
      {"measurement": "tumor imaging", "setting": "[5]", "value": "less effective"}
    ]},
    {"molecule": "O=C(O)CN(CCO)CCN(CC(=O)O)CC(=O)O", "note": "[hydroxyethylethylenediaminetriacetic acid]", "values": [
      {"measurement": "tumor imaging", "setting": "[5]", "value": "less effective"}
    ]},
    {"molecule": "O=C(O)CNCC(=O)O", "note": "[iminodiacetic acid (IDA), iminodiacetic acid]", "values": [
      {"measurement": "tumor imaging", "setting": "[5]", "value": "less effective"}
    ]},
    {"molecule": "CN(CC(=O)O)CC(=O)O", "note": "[methyliminodiacetic acid (MIDA), methyliminodiacetic acid]", "values": [
      {"measurement": "tumor imaging", "setting": "[5]", "value": "less effective"}
    ]},
    {"molecule": "O=C(O)CN(CC(=O)O)CC(=O)O", "note": "[nitrilotriacetic acid (NTA), nitrilotriacetic acid]", "values": [
      {"measurement": "tumor imaging", "setting": "[5]", "value": "less effective"}
    ]},
    {"molecule": "^99m Tc-ethylenediaminediacetic acid", "values": [
      {"measurement": "tumor imaging", "setting": "[5]", "value": "could be used to image tumors"}
    ]}
  ]
}
